Test results published in publication PMC4873255 (Bioorganic & medicinal chemistry letters, 2015).

What was measured:
μ opioid receptors = μ opioid receptors (Cavia porcellus, UniProt P97266); test: cell-based; set-up: species or system guinea pig
[1] = molecular target: human δ opioid receptors (hDOR) (Homo sapiens, UniProt P41143); test: biochemical; format: binding
δ opioid receptors = δ opioid receptors (Mus musculus, UniProt P32300); test: cell-based
[2] = molecular target: rat μ-opioid receptors (rMOR) (Rattus norvegicus, UniProt P33535); test: biochemical; format: binding
Chain of rat μ-opioid receptors (rMOR) (P33535 whole entry): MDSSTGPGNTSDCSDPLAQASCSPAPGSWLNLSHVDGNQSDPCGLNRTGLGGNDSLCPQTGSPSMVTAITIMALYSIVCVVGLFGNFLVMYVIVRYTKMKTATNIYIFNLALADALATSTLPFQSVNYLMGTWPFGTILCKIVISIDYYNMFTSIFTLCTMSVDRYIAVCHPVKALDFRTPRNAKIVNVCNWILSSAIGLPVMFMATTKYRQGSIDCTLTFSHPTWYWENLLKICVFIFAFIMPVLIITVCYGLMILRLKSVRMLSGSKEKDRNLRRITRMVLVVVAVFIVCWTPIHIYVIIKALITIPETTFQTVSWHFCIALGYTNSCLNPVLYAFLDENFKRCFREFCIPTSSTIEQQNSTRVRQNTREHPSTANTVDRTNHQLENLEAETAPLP

Chain of human δ opioid receptors (hDOR) (P41143 whole entry): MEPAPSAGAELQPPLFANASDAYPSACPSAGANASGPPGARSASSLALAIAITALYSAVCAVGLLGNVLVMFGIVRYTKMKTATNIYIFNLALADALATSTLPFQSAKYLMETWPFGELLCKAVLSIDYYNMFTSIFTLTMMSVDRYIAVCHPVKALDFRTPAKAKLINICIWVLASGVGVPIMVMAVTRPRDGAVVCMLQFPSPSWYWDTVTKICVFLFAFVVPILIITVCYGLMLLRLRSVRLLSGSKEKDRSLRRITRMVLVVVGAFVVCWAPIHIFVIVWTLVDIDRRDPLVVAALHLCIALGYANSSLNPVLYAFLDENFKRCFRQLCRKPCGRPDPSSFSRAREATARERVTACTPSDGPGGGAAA
Chain of μ opioid receptors (P97266 whole entry, looked up): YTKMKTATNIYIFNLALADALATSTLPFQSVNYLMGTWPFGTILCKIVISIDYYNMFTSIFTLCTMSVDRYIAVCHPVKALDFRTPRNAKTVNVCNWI
Chain of δ opioid receptors (P32300 whole entry): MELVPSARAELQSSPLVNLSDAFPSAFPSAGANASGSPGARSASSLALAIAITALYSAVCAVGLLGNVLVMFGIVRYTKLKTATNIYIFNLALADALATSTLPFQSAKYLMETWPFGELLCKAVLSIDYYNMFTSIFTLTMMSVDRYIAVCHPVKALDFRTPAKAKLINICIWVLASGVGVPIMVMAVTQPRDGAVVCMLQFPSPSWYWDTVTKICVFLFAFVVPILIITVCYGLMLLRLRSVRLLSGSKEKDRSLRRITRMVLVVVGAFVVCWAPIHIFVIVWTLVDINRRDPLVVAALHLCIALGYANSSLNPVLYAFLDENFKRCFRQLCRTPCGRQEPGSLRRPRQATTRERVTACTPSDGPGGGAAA

CCC(=O)N(CC1CCCCN1Cc1ccc2c(c1)CCC[C@H]2N(C(=O)CCNC(=O)[C@H](Cc1ccccc1)NC(=O)CNC(=O)[C@@H](C)NC(=O)[C@@H](N)Cc1c(C)cc(O)cc1C)C(=O)CCNC(=O)[C@H](Cc1ccccc1)NC(=O)CNC(=O)[C@@H](C)NC(=O)[C@@H](N)Cc1c(C)cc(O)cc1C)c1ccc(F)c(F)c1 (stereo partly drawn) [Compound 10]
IC50 (μ opioid receptors): 2.1 ± 0.45 nM | IC50 [1]: 1.41 nM | Ki [1]: 0.6 nM | IC50 (δ opioid receptors): 6.1 ± 1.5 nM | IC50 [2]: 1.29 nM | Ki [2]: 0.6 nM
